Assay results from US5494907A, “11-β substituted-19-nor steroids” (Roussel UCLAF, priority 1993, dated 1996).

Biological target: T1, hPR (recombinant human progesterone receptor) (Homo sapiens, UniProt P06401)
T1 construct: made in house; host or cells: SF9 insect cells (ATCC CRL1711), recombinant baculovirus (BaculoGold Transfection Kit, PharMingen 21000K)
T1 sequence (P06401 1-933): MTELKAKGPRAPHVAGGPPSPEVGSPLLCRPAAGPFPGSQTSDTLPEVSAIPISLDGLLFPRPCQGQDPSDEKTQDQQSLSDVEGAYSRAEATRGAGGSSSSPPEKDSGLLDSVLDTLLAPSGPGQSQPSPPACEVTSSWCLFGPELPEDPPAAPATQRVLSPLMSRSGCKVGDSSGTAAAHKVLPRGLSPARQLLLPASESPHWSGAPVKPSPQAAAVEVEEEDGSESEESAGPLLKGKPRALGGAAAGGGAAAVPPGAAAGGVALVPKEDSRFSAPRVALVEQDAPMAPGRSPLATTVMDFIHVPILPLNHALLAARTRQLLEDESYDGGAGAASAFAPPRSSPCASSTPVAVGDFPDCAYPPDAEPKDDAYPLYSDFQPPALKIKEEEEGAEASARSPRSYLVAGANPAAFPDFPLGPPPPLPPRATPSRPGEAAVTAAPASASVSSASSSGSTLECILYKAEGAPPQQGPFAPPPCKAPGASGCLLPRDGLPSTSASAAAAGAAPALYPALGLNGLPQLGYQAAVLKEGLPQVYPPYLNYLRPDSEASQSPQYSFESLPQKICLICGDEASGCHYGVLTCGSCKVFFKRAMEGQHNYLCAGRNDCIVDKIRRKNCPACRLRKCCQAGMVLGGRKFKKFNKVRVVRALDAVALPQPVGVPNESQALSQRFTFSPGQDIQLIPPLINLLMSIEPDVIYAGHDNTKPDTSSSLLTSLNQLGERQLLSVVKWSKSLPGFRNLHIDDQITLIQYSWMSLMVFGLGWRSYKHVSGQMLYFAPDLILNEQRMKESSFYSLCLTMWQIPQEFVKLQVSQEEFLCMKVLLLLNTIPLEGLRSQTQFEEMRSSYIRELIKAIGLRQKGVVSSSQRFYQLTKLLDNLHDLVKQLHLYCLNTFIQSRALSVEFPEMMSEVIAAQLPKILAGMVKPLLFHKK
Assay: Relative bond affinity (RBA) on recombinant human progesterone receptor, displacement of tritiated 17α,21-dimethyl-19-nor-Δ4,9-pregnadien-3,20-dione
Assay type: binding
Settings: for RBA hPR: Progesterone = 100, 0° C., 24 hours; for affinity for the progesterone receptor (in words): conclusion in words
Source text: 1--Activity on the hormonal receptors using either the natural hormonal receptor of a rat (AR), or the recombinant human receptor (PR, GR and ER).
Human progesterone receptor
The recombinant human progesterone receptor was obtained by superexpression in an insect-Baculovirus cell system by methodology described by WEBB et al. in Journal of Methods in Cell and Molecular Biology, (1990), Vol. 2 N° 4, pp. 173-188 and whose use is described for the expression of human hormonal receptors, for example the human glucocorticoid receptor (SRINIVASAN et al. Molecular Endocrinology, (1990), Vol. 4 N° 2, pp. 209-216).
The BaculoGold Transfection Kit was used (PharMingen, reference 21000K) to insert the cDNA fragment described by KASTNER et al. (The EMBO Journal, (1990), Vol. 9 N° 5, pp. 1603-1614), containing the region coding for the human progesterone receptor and to prepare the corresponding recombinant virus. The recombinant virus was used to express the progesterone receptor in SF9 insect cells (ATCC CRL1711), by the known methodology mentioned previously.
2×10^7 to 2.5×10^7 SF9 cells were cultivated in a […] "Falcon" flask in a TNM-FH "SIGMA" medium supplemented with 10% of foetal calf serum (FCS) and with 50 micrograms/ml of gentamycin. After infection, then incubation at 27° C. for 40 to 42 hours, the cells were lysed in 1 ml of lysis buffer (1) by a freezing-defrosting cycle which was repeated twice more. The supernatant containing the recombinant human progesterone receptor was kept in liquid nitrogen in doses of 1 ml. The supernatant was diluted at the time of use according to a dilution range varying from 1/10th to 1/100th with 10 mM Tris, 0.25 M saccharose, HCl buffer at pH 7.4 containing 0.1% gelatin and then was incubated at 0° C. for 24 hours with a constant concentration (T) of tritiated 17α,21-dimethyl-19-nor-Δ4,9-pregnadien-3,20-dione in the presence of increasing concentrations either of unlabelled progesterone (0-2500×10^-9 M), or of unlabelled product under test (1 to 25000×10^-9 M). The concentration of bound tritiated 17,21-dimethyl 19-nor-Δ4,9-[…] (B) was then measured in each incubate by the technique of adsorption with carbon dextran.
Calculation of the relative bond affinity (RBA).
The following 2 curves were traced: percentage of bound tritiated hormone B/BO as a function of the logarithm of the concentration of unlabelled reference hormone or as a function of the logarithm of the concentration of the unlabelled product under test.
The straight line of the following equation was determined:
BO=Concentration of bound tritiated hormone in the absence of any unlabelled product,
B=Concentration of bound tritiated hormone in the presence of a concentration X of unlabelled product,
B min=Concentration of bound tritiated hormone in the presence of a large excess of cold reference hormone (500 nM). The intersections of the straight line I50 and the curves allowed the evaluation of the concentrations of unlabelled reference hormone (CH) and of the unlabelled product under test (CX) which inhibited by 50% the specific binding of the tritiated hormone on the receptor.
The relative bond affinity (RBA) of the product under test was determined by the equation:
The RBA's of the reference products estradiol, progesterone, dexamethasone and testosterone were arbitrarily taken to be equal to 100.

`CCCCN(C)S(=O)(=O)CCCCCOc1ccc([C@H]2C[C@]3(C)[C@@H](O)CC[C@H]3[C@@H]3CCc4cc(O)ccc4[C@H]32)cc1` [Example 7, N-butyl-5-[4-(Δ1,3,5(10)-estratrien-3,17β-diol-11β-yl)phenoxy]-N-methyl-pentanesulfonamide] was tested, and the “RBA hPR” value was 111 and the “affinity for the progesterone receptor (in words)” value (“affinity” below) was “marked affinity”.
In the case of `CN(CC(F)(F)C(F)(F)C(F)(F)F)S(=O)(=O)CCCCCOc1ccc([C@H]2C[C@]3(C)[C@@H](O)CC[C@H]3[C@@H]3CCc4cc(O)ccc4[C@H]32)cc1` [Example 8, 5-[4-(Δ1,3,5(10)-estratrien-3,17β-diol-11βyl)-Phenoxy]-N-(2,2,3,3,4,4,4-heptafluorobutyl)-N-methyl-pentanesulfonamide], the “RBA hPR” value is reported as 55 and the “affinity” value is reported as “marked affinity”.
For `CCCCNS(=O)(=O)CCCCCOc1ccc([C@H]2C[C@]3(C)[C@@H](O)CC[C@H]3[C@@H]3CCc4cc(O)ccc4[C@H]32)cc1` [Example 2, N-butyl-5-[4-(Δ1,3,5(10)-estratrien-3,17β-diol-11β-yl)phenoxy]-pentanesulfonamide], the “RBA hPR” value was 37 and the “affinity” value was “marked affinity”.
